{"source": "paper PMC6297231", "about": "(Nature Communications, 2018)", "key": {"[1]": {"assay": "Plasma protein binding in fetal calf serum", "format": "in vitro ADME", "details": "bovine, read-out: plasma protein binding, free"}, "[2]": {"system": "Karpas620", "assay": "Cell viability assay", "format": "cell-based", "details": "Karpas-620, 24 h; Karpas620 (MM); read-out: AZD5991 24h GI50"}, "[3]": {"system": "EJM", "assay": "Cell viability assay", "format": "cell-based", "details": "Homo sapiens, 24 h; EJM (MM); read-out: AZD5991 24h GI50"}, "[4]": {"system": "PL21", "assay": "Cell viability assay", "format": "cell-based", "details": "PL-21, 24 h; PL21 (AML); read-out: AZD5991 24h GI50"}, "[5]": {"system": "OCIM1", "assay": "Cell viability assay", "format": "cell-based", "details": "OCI-M1, 24 h; OCIM1 (AML); read-out: AZD5991 24h GI50"}, "[6]": {"system": "DOHH2", "assay": "Cell viability assay", "format": "cell-based", "details": "Homo sapiens, DOHH-2, 24 h; DOHH2 (NHL); read-out: AZD5991 24h GI50"}, "[7]": {"system": "HBL1", "assay": "Cell viability assay", "format": "cell-based", "details": "24 h; HBL1 (NHL); read-out: AZD5991 24h GI50"}, "[8]": {"system": "JEKO1", "assay": "Cell viability assay", "format": "cell-based", "details": "Homo sapiens, JeKo-1, 24 h; JEKO1 (NHL); read-out: AZD5991 24h GI50"}, "[9]": {"system": "MAVER1", "assay": "Cell viability assay", "format": "cell-based", "details": "Homo sapiens, 24 h; MAVER1 (NHL); read-out: AZD5991 24h GI50"}, "[10]": {"system": "OCILY1", "assay": "Cell viability assay", "format": "cell-based", "details": "Homo sapiens, OCI-Ly1, 24 h; OCILY1 (NHL); read-out: AZD5991 24h GI50"}, "[11]": {"system": "OCILY10", "assay": "Cell viability assay", "format": "cell-based", "details": "Homo sapiens, OCI-Ly10, 24 h; OCILY10 (NHL); read-out: AZD5991 24h GI50"}, "[12]": {"system": "Pfeiffer", "assay": "Cell viability assay", "format": "cell-based", "details": "Homo sapiens, 24 h; Pfeiffer (NHL); read-out: AZD5991 24h GI50"}, "[13]": {"system": "REC1", "assay": "Cell viability assay", "format": "cell-based", "details": "Homo sapiens, 24 h; REC1 (NHL); read-out: AZD5991 24h GI50"}, "[14]": {"system": "Toledo", "assay": "Cell viability assay", "format": "cell-based", "details": "Homo sapiens, 24 h; Toledo (NHL); read-out: AZD5991 24h GI50"}, "[15]": {"system": "ULA", "assay": "Cell viability assay", "format": "cell-based", "details": "24 h; ULA (NHL); read-out: AZD5991 24h GI50"}, "[16]": {"system": "WSUDLCL2", "assay": "Cell viability assay", "format": "cell-based", "details": "Homo sapiens, 24 h; WSUDLCL2 (NHL); read-out: AZD5991 24h GI50"}, "[17]": {"system": "DMS114", "assay": "Cell viability assay", "format": "cell-based", "details": "Homo sapiens, DMS-114, 24 h; DMS114 (Lung); read-out: AZD5991 24h GI50"}, "[18]": {"system": "H1395", "assay": "Cell viability assay", "format": "cell-based", "details": "Homo sapiens, NCI-H1395, 24 h; H1395 (Lung); read-out: AZD5991 24h GI50"}, "[19]": {"system": "H1734", "assay": "Cell viability assay", "format": "cell-based", "details": "Homo sapiens, NCI-H1734, 24 h; H1734 (Lung); read-out: AZD5991 24h GI50"}, "[20]": {"system": "H2126", "assay": "Cell viability assay", "format": "cell-based", "details": "Homo sapiens, NCI-H2126, 24 h; H2126 (Lung); read-out: AZD5991 24h GI50"}, "[21]": {"system": "H322", "assay": "Cell viability assay", "format": "cell-based", "details": "NCI-H322, 24 h; H322 (Lung); read-out: AZD5991 24h GI50"}, "[22]": {"system": "LUDLU1", "assay": "Cell viability assay", "format": "cell-based", "details": "LUDLU-1, 24 h; LUDLU1 (Lung); read-out: AZD5991 24h GI50"}, "[23]": {"system": "MCF7", "assay": "Cell viability assay", "format": "cell-based", "details": "Homo sapiens, 24 h; MCF7 (Breast); read-out: AZD5991 24h GI50"}, "[24]": {"system": "SKBR3", "assay": "Cell viability assay", "format": "cell-based", "details": "Homo sapiens, SK-BR-3, 24 h; SKBR3 (Breast); read-out: AZD5991 24h GI50"}, "[25]": {"system": "A101D", "assay": "Cell viability assay", "format": "cell-based", "details": "Homo sapiens, 24 h; A101D (Skin); read-out: AZD5991 24h GI50"}, "[26]": {"system": "MEWO", "assay": "Cell viability assay", "format": "cell-based", "details": "Homo sapiens, 24 h; MEWO (Skin); read-out: AZD5991 24h GI50"}, "[27]": {"system": "647V", "assay": "Cell viability assay", "format": "cell-based", "details": "Homo sapiens, 24 h; 647V (Urology); read-out: AZD5991 24h GI50"}, "[28]": {"system": "SNU16", "assay": "Cell viability assay", "format": "cell-based", "details": "Homo sapiens, SNU-16, 24 h; SNU16 (GI); read-out: AZD5991 24h GI50"}, "[29]": {"system": "KG1", "assay": "Caspase-3/7 activation assay", "format": "cell-based", "details": "Homo sapiens, KG-1, 6 h"}, "[30]": {"system": "primary MM cells", "details": "48 MM patients, 24 h, Annexin V by flow"}, "[31]": {"system": "Eμ-Myc lymphoma cells stably expressing human Bcl-2", "assay": "Apoptosis induction in Eμ-Myc lymphoma cells", "details": "overexpression of Bcl-2, 24 h"}, "[32]": {"system": "Eμ-Myc lymphoma cells stably expressing human Bfl-1/A1", "assay": "Apoptosis induction in Eμ-Myc lymphoma cells", "details": "overexpression of Bfl-1/A1, 24 h"}}, "note": "Like-named read-outs stand apart in the source and are kept apart here.", "data": [{"compound": "Cc1c2c(nn1C)CSCc1cc(n(C)n1)CSc1cc(c3ccccc3c1)OCCCc1c(C(=O)O)n(C)c3c-2c(Cl)ccc13", "note": "(atropisomer, axis not shown; (Ra)) [(Ra)-7]", "values": [{"measurement": "fraction unbound", "setting": "[1]", "result": 0.001}, {"measurement": "GI50", "setting": "[2]", "result": 87, "unit": "nM"}, {"measurement": "GI50", "setting": "[3]", "result": 105, "unit": "nM"}, {"measurement": "GI50", "setting": "[4]", "result": 403, "unit": "nM"}, {"measurement": "GI50", "setting": "[5]", "result": 27700, "unit": "nM"}, {"measurement": "GI50", "setting": "[6]", "result": 65, "unit": "nM"}, {"measurement": "GI50", "setting": "[7]", "result": 8320, "unit": "nM"}, {"measurement": "GI50", "setting": "[8]", "result": 452, "unit": "nM"}, {"measurement": "GI50", "setting": "[9]", "result": 530, "unit": "nM"}, {"measurement": "GI50", "setting": "[10]", "result": 561, "unit": "nM"}, {"measurement": "GI50", "setting": "[11]", "result": 119, "unit": "nM"}, {"measurement": "GI50", "setting": "[12]", "result": 3370, "unit": "nM"}, {"measurement": "GI50", "setting": "[13]", "result": 728, "unit": "nM"}, {"measurement": "GI50", "setting": "[14]", "result": 113, "unit": "nM"}, {"measurement": "GI50", "setting": "[15]", "result": 91, "unit": "nM"}, {"measurement": "GI50", "setting": "[16]", "result": 109, "unit": "nM"}, {"measurement": "GI50", "setting": "[17]", "result": 219, "unit": "nM"}, {"measurement": "GI50", "setting": "[18]", "result": 12000, "unit": "nM"}, {"measurement": "GI50", "setting": "[19]", "result": 13800, "unit": "nM"}, {"measurement": "GI50", "setting": "[20]", "result": 320, "unit": "nM"}, {"measurement": "GI50", "setting": "[21]", "result": 17400, "unit": "nM"}, {"measurement": "GI50", "setting": "[22]", "result": 991, "unit": "nM"}, {"measurement": "GI50", "setting": "[23]", "result": 1350, "unit": "nM"}, {"measurement": "GI50", "setting": "[24]", "result": 118, "unit": "nM"}, {"measurement": "GI50", "setting": "[25]", "result": 175, "unit": "nM"}, {"measurement": "GI50", "setting": "[26]", "result": 7680, "unit": "nM"}, {"measurement": "GI50", "setting": "[27]", "result": 22300, "unit": "nM"}, {"measurement": "GI50", "setting": "[28]", "result": 139, "unit": "nM"}, {"measurement": "EC50", "setting": "[29]; read-out: 6h caspase EC50, KG1, single agent", "result": "> 333", "unit": "nM"}, {"measurement": "EC50", "setting": "[29]; read-out: AZD5991 6h EC50, KG1 (AML), caspase 3/7 activation", "result": 509, "unit": "nM"}, {"measurement": "MM primary samples with EC50 values below 100 nM", "setting": "[30]", "result": 71, "unit": "%"}, {"measurement": "apoptosis-inducing activity", "setting": "[31]", "result": "blocked"}, {"measurement": "apoptosis-inducing activity", "setting": "[32]", "result": "blocked"}]}]}
